The values below come from patent publication US11208412B2 (DAEGU-GYEONGBUK MEDICAL INNOVATION FOUNDATION, priority 2017, dated 2021).

What all share (assay): Kinase selectivity, DiscoverX scanMAX Kinase assay panel (% control)
Holding throughout (type): binding

The target of test [1] is T1, kinases of the scanMAX Kinase assay panel (Homo sapiens, UniProt O76039).
T1 construct: purchased DiscoverX Co. (contract measurement) scanMAX Kinase assay panel
T1 sequence (O76039 1-960): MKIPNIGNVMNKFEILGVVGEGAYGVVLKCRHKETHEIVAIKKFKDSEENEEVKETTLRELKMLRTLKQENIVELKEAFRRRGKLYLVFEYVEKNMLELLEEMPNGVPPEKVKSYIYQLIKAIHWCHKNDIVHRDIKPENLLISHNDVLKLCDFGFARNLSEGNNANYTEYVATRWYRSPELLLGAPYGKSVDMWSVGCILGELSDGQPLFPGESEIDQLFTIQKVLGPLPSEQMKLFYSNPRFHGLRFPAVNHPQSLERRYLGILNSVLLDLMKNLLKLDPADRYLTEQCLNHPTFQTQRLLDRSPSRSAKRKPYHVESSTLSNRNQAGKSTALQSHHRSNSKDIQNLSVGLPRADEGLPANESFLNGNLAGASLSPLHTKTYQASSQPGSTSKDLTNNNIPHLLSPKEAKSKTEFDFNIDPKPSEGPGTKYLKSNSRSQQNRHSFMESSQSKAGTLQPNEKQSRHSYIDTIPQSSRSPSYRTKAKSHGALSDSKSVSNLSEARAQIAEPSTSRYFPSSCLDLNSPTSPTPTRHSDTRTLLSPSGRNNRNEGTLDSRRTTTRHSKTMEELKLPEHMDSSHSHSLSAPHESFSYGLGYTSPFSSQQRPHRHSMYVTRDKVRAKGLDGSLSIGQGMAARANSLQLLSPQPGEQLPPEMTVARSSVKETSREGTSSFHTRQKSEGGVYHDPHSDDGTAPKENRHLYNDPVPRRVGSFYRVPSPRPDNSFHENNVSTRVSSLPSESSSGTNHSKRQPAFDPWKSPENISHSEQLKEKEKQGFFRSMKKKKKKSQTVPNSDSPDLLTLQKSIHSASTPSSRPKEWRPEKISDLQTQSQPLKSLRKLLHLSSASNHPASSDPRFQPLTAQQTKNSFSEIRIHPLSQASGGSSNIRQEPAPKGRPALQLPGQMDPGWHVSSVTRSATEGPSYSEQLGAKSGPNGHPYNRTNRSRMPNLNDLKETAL
Conditions: CDKL5; 1 uM. In outline:
(§1)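 Binding-panel profiling at one concentration, 1 uM in DMSO; values are % of DMSO control after subtracting the positive-control floor. Less than 35% means activity on that kinase.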

Test [2] concerns the target T2, kinases of the scanMAX Kinase assay panel (Homo sapiens, UniProt P07949, V804L).
T2 construct: purchased DiscoverX Co. (contract measurement) scanMAX Kinase assay panel
Conditions: kinase RET(V804L); 1 uM in DMSO. Put shortly: as §1

For test [3], the target named is T3, kinases of the scanMAX Kinase assay panel (Homo sapiens, UniProt P35626).
T3 construct: purchased DiscoverX Co. (contract measurement) scanMAX Kinase assay panel
T3 sequence (P35626 1-688): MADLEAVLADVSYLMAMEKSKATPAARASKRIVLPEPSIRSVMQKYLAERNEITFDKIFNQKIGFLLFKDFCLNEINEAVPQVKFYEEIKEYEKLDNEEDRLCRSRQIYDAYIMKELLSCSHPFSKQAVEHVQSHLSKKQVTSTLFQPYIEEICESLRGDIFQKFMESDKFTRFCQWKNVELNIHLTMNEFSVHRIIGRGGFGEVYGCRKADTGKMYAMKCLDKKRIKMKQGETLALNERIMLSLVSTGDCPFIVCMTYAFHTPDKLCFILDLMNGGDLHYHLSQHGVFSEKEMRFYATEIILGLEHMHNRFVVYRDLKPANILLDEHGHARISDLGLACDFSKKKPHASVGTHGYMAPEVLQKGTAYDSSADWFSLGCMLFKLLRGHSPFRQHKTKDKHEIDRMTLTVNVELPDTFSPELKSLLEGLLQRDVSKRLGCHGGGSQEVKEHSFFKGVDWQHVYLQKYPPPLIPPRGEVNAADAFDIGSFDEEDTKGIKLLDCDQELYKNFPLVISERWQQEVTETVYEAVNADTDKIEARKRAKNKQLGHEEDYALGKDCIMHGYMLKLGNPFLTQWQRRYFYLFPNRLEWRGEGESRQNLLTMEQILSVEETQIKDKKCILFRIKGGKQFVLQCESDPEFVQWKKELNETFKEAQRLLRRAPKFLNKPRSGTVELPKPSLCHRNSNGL
Particulars: GRK3; 1 uM. In outline:
as §1

In test [4] the target is T4, kinases of the scanMAX Kinase assay panel (Homo sapiens, UniProt P49759).
T4 construct: purchased DiscoverX Co. (contract measurement) scanMAX Kinase assay panel
Particulars: CLK1; 1 uM. Put shortly:
as §1

The target in test [5] is T5, kinases of the scanMAX Kinase assay panel (Homo sapiens, UniProt Q00526).
T5 construct: purchased DiscoverX Co. (contract measurement) scanMAX Kinase assay panel
Conditions: CDK3; 1 uM. In outline: as §1

Test [6] addresses T6, kinases of the scanMAX Kinase assay panel (Homo sapiens, UniProt Q6DT37).
T6 construct: purchased DiscoverX Co. (contract measurement) scanMAX Kinase assay panel
Conditions: DMPK2; 1 uM. In outline:
as §1

Molecules are shown by their SMILES.

T5 sequence (Q00526 whole entry): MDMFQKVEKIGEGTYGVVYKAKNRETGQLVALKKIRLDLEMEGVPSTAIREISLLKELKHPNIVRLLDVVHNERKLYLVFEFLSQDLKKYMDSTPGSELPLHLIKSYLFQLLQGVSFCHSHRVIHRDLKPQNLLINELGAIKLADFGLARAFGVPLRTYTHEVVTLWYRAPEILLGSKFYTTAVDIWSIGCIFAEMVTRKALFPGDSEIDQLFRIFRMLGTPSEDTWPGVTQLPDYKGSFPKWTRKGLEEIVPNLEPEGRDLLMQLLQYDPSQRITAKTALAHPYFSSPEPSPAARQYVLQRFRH
T4 sequence (P49759 whole entry): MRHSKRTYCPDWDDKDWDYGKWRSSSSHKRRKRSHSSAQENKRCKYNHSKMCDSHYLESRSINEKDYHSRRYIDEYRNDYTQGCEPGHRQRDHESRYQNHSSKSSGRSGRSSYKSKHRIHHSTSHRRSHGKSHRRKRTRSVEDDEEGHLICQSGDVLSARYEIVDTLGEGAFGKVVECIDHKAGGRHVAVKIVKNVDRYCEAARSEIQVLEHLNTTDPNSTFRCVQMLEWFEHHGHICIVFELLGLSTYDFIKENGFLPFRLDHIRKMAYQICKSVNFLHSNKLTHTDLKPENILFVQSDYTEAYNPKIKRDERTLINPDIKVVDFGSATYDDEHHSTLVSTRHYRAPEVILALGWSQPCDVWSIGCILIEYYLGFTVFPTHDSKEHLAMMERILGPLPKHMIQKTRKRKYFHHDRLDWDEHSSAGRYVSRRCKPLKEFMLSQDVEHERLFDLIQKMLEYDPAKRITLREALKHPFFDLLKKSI
T6 sequence (Q6DT37 whole entry): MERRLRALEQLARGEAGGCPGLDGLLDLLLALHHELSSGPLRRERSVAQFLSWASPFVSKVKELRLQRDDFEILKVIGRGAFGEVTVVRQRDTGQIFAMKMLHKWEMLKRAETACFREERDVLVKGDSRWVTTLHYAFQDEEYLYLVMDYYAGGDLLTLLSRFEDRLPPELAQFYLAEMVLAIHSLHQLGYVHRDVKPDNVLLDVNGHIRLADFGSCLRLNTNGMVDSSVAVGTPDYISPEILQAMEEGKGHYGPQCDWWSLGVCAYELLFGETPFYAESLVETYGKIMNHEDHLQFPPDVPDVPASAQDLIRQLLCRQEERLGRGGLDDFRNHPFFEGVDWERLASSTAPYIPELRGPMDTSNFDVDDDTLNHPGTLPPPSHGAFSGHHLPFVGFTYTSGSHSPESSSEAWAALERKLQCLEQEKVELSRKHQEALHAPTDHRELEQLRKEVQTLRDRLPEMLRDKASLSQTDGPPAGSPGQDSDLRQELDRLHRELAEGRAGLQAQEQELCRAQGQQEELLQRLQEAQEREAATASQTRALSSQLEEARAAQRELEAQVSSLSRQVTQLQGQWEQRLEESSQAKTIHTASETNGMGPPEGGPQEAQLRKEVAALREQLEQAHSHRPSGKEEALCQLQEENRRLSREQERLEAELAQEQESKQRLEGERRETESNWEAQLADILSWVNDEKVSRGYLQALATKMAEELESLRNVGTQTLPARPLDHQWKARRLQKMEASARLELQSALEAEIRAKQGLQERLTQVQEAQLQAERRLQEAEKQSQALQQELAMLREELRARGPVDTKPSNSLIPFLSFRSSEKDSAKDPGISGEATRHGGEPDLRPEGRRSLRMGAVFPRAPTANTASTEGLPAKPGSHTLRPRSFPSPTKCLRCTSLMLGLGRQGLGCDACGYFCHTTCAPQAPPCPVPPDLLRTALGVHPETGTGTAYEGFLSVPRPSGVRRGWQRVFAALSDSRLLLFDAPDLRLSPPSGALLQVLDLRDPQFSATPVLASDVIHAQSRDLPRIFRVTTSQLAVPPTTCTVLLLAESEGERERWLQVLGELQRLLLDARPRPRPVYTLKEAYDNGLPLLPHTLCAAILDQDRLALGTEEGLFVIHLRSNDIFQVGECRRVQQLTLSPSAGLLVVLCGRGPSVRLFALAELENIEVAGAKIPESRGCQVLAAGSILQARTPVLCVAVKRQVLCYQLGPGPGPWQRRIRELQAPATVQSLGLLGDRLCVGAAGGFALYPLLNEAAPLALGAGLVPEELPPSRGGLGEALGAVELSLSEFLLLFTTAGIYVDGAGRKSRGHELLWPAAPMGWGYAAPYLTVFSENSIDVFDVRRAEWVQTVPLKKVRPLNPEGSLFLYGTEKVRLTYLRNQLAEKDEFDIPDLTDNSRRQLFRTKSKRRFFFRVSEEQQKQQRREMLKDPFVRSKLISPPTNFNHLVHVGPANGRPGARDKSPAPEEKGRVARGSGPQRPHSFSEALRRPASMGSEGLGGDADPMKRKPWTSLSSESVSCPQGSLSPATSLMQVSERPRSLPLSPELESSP
T2 sequence (P07949 29-1114 V804L): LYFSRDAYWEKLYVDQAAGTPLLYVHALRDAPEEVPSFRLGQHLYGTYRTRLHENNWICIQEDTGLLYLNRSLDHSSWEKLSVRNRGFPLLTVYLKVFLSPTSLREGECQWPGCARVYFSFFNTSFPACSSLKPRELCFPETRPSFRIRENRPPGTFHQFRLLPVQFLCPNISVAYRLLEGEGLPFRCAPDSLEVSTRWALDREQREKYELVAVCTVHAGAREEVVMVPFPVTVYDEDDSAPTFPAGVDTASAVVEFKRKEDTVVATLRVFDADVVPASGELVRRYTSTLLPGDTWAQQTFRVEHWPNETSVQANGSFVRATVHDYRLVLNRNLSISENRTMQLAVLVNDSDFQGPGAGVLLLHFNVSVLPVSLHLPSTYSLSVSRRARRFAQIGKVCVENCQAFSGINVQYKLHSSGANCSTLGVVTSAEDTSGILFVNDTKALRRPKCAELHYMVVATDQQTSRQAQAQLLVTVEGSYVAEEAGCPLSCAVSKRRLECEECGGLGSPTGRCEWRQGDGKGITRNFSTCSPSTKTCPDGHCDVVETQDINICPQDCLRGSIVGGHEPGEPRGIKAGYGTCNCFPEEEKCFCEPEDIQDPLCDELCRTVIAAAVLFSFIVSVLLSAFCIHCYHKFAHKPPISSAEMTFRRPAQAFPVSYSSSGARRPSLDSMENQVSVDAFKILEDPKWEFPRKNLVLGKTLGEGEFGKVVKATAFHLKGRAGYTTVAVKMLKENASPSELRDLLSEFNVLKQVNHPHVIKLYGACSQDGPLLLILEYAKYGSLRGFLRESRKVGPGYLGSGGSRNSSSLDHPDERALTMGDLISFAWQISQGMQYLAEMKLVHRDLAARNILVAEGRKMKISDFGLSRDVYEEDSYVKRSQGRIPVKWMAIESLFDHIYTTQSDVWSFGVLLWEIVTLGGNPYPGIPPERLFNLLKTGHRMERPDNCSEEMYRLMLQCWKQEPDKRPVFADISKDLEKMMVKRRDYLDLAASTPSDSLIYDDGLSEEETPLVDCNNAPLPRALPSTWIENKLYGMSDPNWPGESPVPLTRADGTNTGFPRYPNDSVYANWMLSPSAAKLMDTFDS

Consider `CNc1nc(Nc2ccc(C(=O)N3CCOCC3)cc2OC)nc2[nH]cc(C#N)c12` [Example 1, 2-((2-methoxy-4-(morpholine-4-carbonyl)phenyl)amino)-4-(methylamino)-7H-pyrrolo[2,3-d]pyrimidine-5-carbonitrile], for which the remaining binding at 1 µM came out at 76% in test [1]; 79% in test [2]; 99% in test [3]; 1.8% in test [4]; 100% in test [5]; 90% in test [6].

Consider `CC1(Nc2nc(Nc3cnn([C@H]4CCN(C5COC5)C[C@@H]4F)c3Cl)nc3[nH]cc(C#N)c23)CC1` [Example 52, 2-((5-chloro-1-((3S,4S)-3-fluoro-1-(oxetane-3-yl)piperidine-4-yl)-1H-pyrazole-4-yl)amino)((1-methylcyclopropyl)amino)-7H-pyrrolo[2,3-d]pyrimidine-5-carbonitrile], for which the remaining binding at 1 µM in test [1] stood at 100%; in test [2], 0%; in test [3], 53%; in test [4] it was 0.6%; in test [5] it was 76%; in test [6] it was 81%.

In the case of `CCNc1nc(Nc2ccc(C(=O)N3CCC(N4CCOCC4)CC3)cc2OC)nc2[nH]cc(C(F)(F)F)c12` [Example 104, (4-((4-(ethylamino)-5-(trifluoromethyl)-7H-pyrrolo[2,3-d]pyrimidine-2-yl)amino)-3-methoxyphenyl)(4-morpholinopiperidine-1-yl)methanone], the remaining binding at 1 µM in test [1] is 100%; in test [2], 89%; in test [3], 97%; in test [4], 0.15%; in test [5], 93%; in test [6] it was 100%.
